From patent US9102648B1, “Bioavailable diacylhydrazine ligands for modulating the expression of exogenous genes via an ecdysone receptor complex” (Intrexon Corporation, priority 2003, dated 2015)
Like-named read-outs stand apart in the source and are kept apart here.

Key:
[1] = molecular target: GAL4 DBD (1-147)-CfEcR(DEF)/VP16AD-βRXREF-LmUSPEF (Choristoneura fumiferana, UniProt O77240); assay: cell-based; settings: for Fold Induction, 27-63 Assay, 3.3 uM: 3.3 uM ligand; for Fold Induction, 27-63 Assay, 3.3 uM / Fold Induction, 27-63 Assay, 33 uM: RLU ligand treated / RLU DMSO treated cells; for Fold Induction, 27-63 Assay, 33 uM: 33 uM ligand; for 27-63 assay Rel Max FI: maximum fold induction at any concentration relative to that of GS-E ligand, CHO 27-63 cells; for fold induction at 3.3 µM: read-out: Fold Induction, 27-63 Assay, 3.3 uM; for fold induction at 33 µM: read-out: Fold Induction, 27-63 Assay, 33 uM
[2] = molecular target: GAL4 DBD-CfEcR(DEF)/VP16AD-MmRXRE (Choristoneura fumiferana, UniProt O77240); assay: 13B3 Assay (CHO stable cell line, luciferase reporter); settings: for Fold Induction, 13B3 Assay, 3.3 uM: 3.3 uM ligand; for Fold Induction, 13B3 Assay, 3.3 uM / Fold Induction, 13B3 Assay, 33 uM: RLU ligand treated / RLU DMSO treated cells; for Fold Induction, 13B3 Assay, 33 uM: 33 uM ligand; for 13B3 assay Rel Max FI: maximum fold induction at any concentration relative to that of GS-E ligand, CHO 13B3 cells; for fold induction at 3.3 µM: read-out: Fold Induction, 13B3 Assay, 3.3 uM; for fold induction at 33 µM: read-out: Fold Induction, 13B3 Assay, 33 uM
In short: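 Ligands dosed at 8 levels from 33 to 0.01 μM (DMSO stocks diluted 300-fold) onto the 13B3 CHO line carrying GAL4-DBD/CfEcR-DEF, VP16/MmRXR-DE and a GAL4-responsive luciferase gene.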

[3] = read-out: 27-63 assay EC50, CHO 27-63 stable cell line, luciferase reporter, average of two wells
[4] = read-out: 13B3 EC50, CHO 13B3 stable cell line, luciferase reporter, 48 h, average of two wells

Cc1c(C(=O)NN(C(=O)c2cc(F)c(Cl)cc2Cl)C(C)(C)C)ccc2c1CCCO2 [RG-115539]
Fold Induction, 27-63 Assay, 3.3 uM ([1]; average of two wells): 1076
Fold Induction, 27-63 Assay, 33 uM ([1]; average of two wells): 534
27-63 assay Rel Max FI [1]: 0.595
EC50 [1, 3]: 1180 nM
Fold Induction, 13B3 Assay, 3.3 uM ([2]; average of two wells): 20
Fold Induction, 13B3 Assay, 33 uM ([2]; average of two wells): 592
13B3 assay Rel Max FI [2]: 0.955
EC50 [2, 4]: 5000 nM

Cc1c(C(=O)NN(C(=O)c2ccc(F)cc2)C(C)(C)C)ccc2c1OCCO2 [RG-100425]
Fold Induction, 27-63 Assay, 3.3 uM ([1]; average of two wells): 1156
Fold Induction, 27-63 Assay, 33 uM ([1]; average of two wells): 1099
27-63 assay Rel Max FI [1]: 0.671
EC50 [1, 3]: 370 nM
Fold Induction, 13B3 Assay, 33 uM ([2]; average of two wells): 747

CC(C)(C)N(NC(=O)c1ccc(Cl)cc1)C(=O)c1ccccc1 [RG-100864]
EC50 [1]: 17300 nM
27-63 assay Rel Max FI [1]: 0.716
fold induction at 3.3 µM [1]: 1
fold induction at 33 µM [1]: 1180
EC50 [2]: 1160 nM
fold induction at 3.3 µM [2]: 318
fold induction at 33 µM [2]: 187

COc1cccc(C(=O)NN(C(=O)c2cc(C)cc(C)c2)C(C)(C)C)c1C [RG-102398]
EC50 [1]: 325 nM
27-63 assay Rel Max FI [1]: 1.017
fold induction at 3.3 µM [1]: 2880
fold induction at 33 µM [1]: 3180
EC50 [2]: 627 nM
13B3 assay Rel Max FI [2]: 0.838
fold induction at 3.3 µM [2]: 8120
fold induction at 33 µM [2]: 795

COc1ccc(Cl)cc1C(=O)N(NC(=O)c1ccc2c(c1C)CCCO2)C(C)(C)C [RG-115551]
Fold Induction, 27-63 Assay, 3.3 uM ([1]; average of two wells): 1150
Fold Induction, 27-63 Assay, 33 uM ([1]; average of two wells): 1068
27-63 assay Rel Max FI [1]: 0.684
EC50 [1, 3]: 852 nM
Fold Induction, 13B3 Assay, 33 uM ([2]; average of two wells): 290

CCc1c(C(=O)NN(C(=O)c2ccccc2OC)C(C)(C)C)ccc2c1OCCO2 [RG-100690]
Fold Induction, 27-63 Assay, 3.3 uM ([1]; average of two wells): 1136
Fold Induction, 27-63 Assay, 33 uM ([1]; average of two wells): 1047
27-63 assay Rel Max FI [1]: 0.727
EC50 [1, 3]: 200 nM
Fold Induction, 13B3 Assay, 3.3 uM ([2]; average of two wells): 1094
Fold Induction, 13B3 Assay, 33 uM ([2]; average of two wells): 500
13B3 assay Rel Max FI [2]: 0.506
EC50 [2, 4]: 268 nM

Cc1c(C(=O)NN(C(=O)c2ccc(F)c(F)c2)C(C)(C)C)ccc2c1CCCO2 [RG-115416]
Fold Induction, 27-63 Assay, 3.3 uM ([1]; average of two wells): 2412
Fold Induction, 27-63 Assay, 33 uM ([1]; average of two wells): 1867
27-63 assay Rel Max FI [1]: 0.721
EC50 [1, 3]: 637 nM
Fold Induction, 13B3 Assay, 3.3 uM ([2]; average of two wells): 3618
Fold Induction, 13B3 Assay, 33 uM ([2]; average of two wells): 2737
13B3 assay Rel Max FI [2]: 12.104
EC50 [2, 4]: 938 nM

COc1cccc(C(=O)NN(C(=O)c2cc(C)cc(C)c2)C(C)(C)C)c1N [RG-115378]
Fold Induction, 27-63 Assay, 3.3 uM ([1]; average of two wells): 1493
Fold Induction, 27-63 Assay, 33 uM ([1]; average of two wells): 1407
27-63 assay Rel Max FI [1]: 0.863
EC50 [1, 3]: 758 nM
Fold Induction, 13B3 Assay, 3.3 uM ([2]; average of two wells): 1778
Fold Induction, 13B3 Assay, 33 uM ([2]; average of two wells): 2424
13B3 assay Rel Max FI [2]: 0.655
EC50 [2, 4]: 1760 nM

COc1cccc(C(=O)N(NC(=O)c2ccc3c(c2C)OCCO3)C(C)(C)C)c1 [RG-100360]
Fold Induction, 27-63 Assay, 3.3 uM ([1]; average of two wells): 1627
Fold Induction, 27-63 Assay, 33 uM ([1]; average of two wells): 1353
27-63 assay Rel Max FI [1]: 0.873
EC50 [1, 3]: 615 nM
Fold Induction, 13B3 Assay, 3.3 uM ([2]; average of two wells): 1111
Fold Induction, 13B3 Assay, 33 uM ([2]; average of two wells): 745
13B3 assay Rel Max FI [2]: 0.825
EC50 [2, 4]: 588 nM

CCc1c(C(=O)NN(C(=O)c2ccccc2)C(C)(C)C)ccc2c1OCOC2 [RG-115046]
Fold Induction, 27-63 Assay, 3.3 uM ([1]; average of two wells): 18
Fold Induction, 27-63 Assay, 33 uM ([1]; average of two wells): 1069
27-63 assay Rel Max FI [1]: 0.739
EC50 [1, 3]: 5660 nM
Fold Induction, 13B3 Assay, 33 uM ([2]; average of two wells): 1076

CCc1c(C(=O)NN(C(=O)c2ccc(Cl)cc2OC)C(C)(C)C)ccc2c1OCO2 [RG-115085]
Fold Induction, 27-63 Assay, 3.3 uM ([1]; average of two wells): 1143
Fold Induction, 27-63 Assay, 33 uM ([1]; average of two wells): 1149
27-63 assay Rel Max FI [1]: 0.683
EC50 [1, 3]: 807 nM
Fold Induction, 13B3 Assay, 33 uM ([2]; average of two wells): 236

CCc1c(C(=O)NN(C(=O)c2cccc(OC)c2)C(C)(C)C)ccc2c1OCCO2 [RG-100691]
Fold Induction, 27-63 Assay, 3.3 uM ([1]; average of two wells): 1378
Fold Induction, 27-63 Assay, 33 uM ([1]; average of two wells): 1209
27-63 assay Rel Max FI [1]: 0.863
EC50 [1, 3]: 330 nM
Fold Induction, 13B3 Assay, 33 uM ([2]; average of two wells): 643

CCc1c(OC)cccc1C(=O)NN(C(=O)c1cc(C)cc(C)c1)C(C)(C)CO [RG-115143]
Fold Induction, 27-63 Assay, 3.3 uM ([1]; average of two wells): 59
Fold Induction, 27-63 Assay, 33 uM ([1]; average of two wells): 1736
27-63 assay Rel Max FI [1]: 1.112
EC50 [1, 3]: 7780 nM
Fold Induction, 13B3 Assay, 3.3 uM ([2]; average of two wells): 1
Fold Induction, 13B3 Assay, 33 uM ([2]; average of two wells): 2032
13B3 assay Rel Max FI [2]: 0.651
EC50 [2, 4]: > 50000 nM

Cc1ccc([N+](=O)[O-])c(C(=O)N(NC(=O)c2ccc3c(c2C)CCCO3)C(C)(C)C)c1 [RG-115664]
Fold Induction, 27-63 Assay, 3.3 uM ([1]; average of two wells): 1928
Fold Induction, 27-63 Assay, 33 uM ([1]; average of two wells): 1768
27-63 assay Rel Max FI [1]: 0.635
EC50 [1, 3]: 359 nM
Fold Induction, 13B3 Assay, 3.3 uM ([2]; average of two wells): 1363
Fold Induction, 13B3 Assay, 33 uM ([2]; average of two wells): 333
13B3 assay Rel Max FI [2]: 0.497
EC50 [2, 4]: 323 nM

COc1ccc(OC)c(C(=O)N(NC(=O)c2cccc(C)c2C)C(C)(C)C)c1 [RG-100763]
Fold Induction, 27-63 Assay, 3.3 uM ([1]; average of two wells): 107
Fold Induction, 27-63 Assay, 33 uM ([1]; average of two wells): 1609
27-63 assay Rel Max FI [1]: 0.856
EC50 [1, 3]: 5300 nM
Fold Induction, 13B3 Assay, 33 uM ([2]; average of two wells): 2442

CCc1c(OC)cccc1C(=O)NN(C(=O)c1cc(C)cc(C)c1)C(C)(C)C=NNC(=O)C(N)=O [RG-115597, oxamic carbazide of 2-ethyl-3-methoxy-benzoic acid N′-(3,5-dimethyl-benzoyl)-N′-(1,1-dimethyl-2-oxo-ethyl)-hydrazide]
Fold Induction, 27-63 Assay, 3.3 uM ([1]; average of two wells): 2
Fold Induction, 27-63 Assay, 33 uM ([1]; average of two wells): 2065
27-63 assay Rel Max FI [1]: 1.26
EC50 [1, 3]: 9830 nM
Fold Induction, 13B3 Assay, 33 uM ([2]; average of two wells): 4667

Cc1c(C(=O)NN(C(=O)c2ccc(F)cc2)C(C)(C)C)ccc2c1OCO2 [RG-100448]
Fold Induction, 27-63 Assay, 3.3 uM ([1]; average of two wells): 66
Fold Induction, 27-63 Assay, 33 uM ([1]; average of two wells): 847
27-63 assay Rel Max FI [1]: 0.609
EC50 [1, 3]: 5290 nM
Fold Induction, 13B3 Assay, 33 uM ([2]; average of two wells): 2

CCc1c(OC)cccc1C(=O)NN(C(=O)c1cc(Cl)ccc1[N+](=O)[O-])C(C)(C)C [RG-115257]
Fold Induction, 27-63 Assay, 3.3 uM ([1]; average of two wells): 1130
Fold Induction, 27-63 Assay, 33 uM ([1]; average of two wells): 1320
27-63 assay Rel Max FI [1]: 0.663
EC50 [1, 3]: 698 nM
Fold Induction, 13B3 Assay, 3.3 uM ([2]; average of two wells): 820
Fold Induction, 13B3 Assay, 33 uM ([2]; average of two wells): 354
13B3 assay Rel Max FI [2]: 0.742
EC50 [2, 4]: 886 nM

COc1cccc(C(=O)NN(C(=O)c2cccc(C)c2)C(C)(C)C)c1C [RG-100694]
Fold Induction, 27-63 Assay, 3.3 uM ([1]; average of two wells): 1057
Fold Induction, 27-63 Assay, 33 uM ([1]; average of two wells): 1004
27-63 assay Rel Max FI [1]: 0.767
EC50 [1, 3]: 400 nM
Fold Induction, 13B3 Assay, 3.3 uM ([2]; average of two wells): 3385
Fold Induction, 13B3 Assay, 33 uM ([2]; average of two wells): 2078
13B3 assay Rel Max FI [2]: 0.632
EC50 [2, 4]: 405 nM

CCc1ccc(C(=O)NN(C(=O)c2cc(C)cc(C)c2)C(C)(C)C)cc1 [RG-102125]
EC50 [1]: 190 nM
27-63 assay Rel Max FI [1]: 0.721
EC50 [2]: 479 nM

CCOC(=O)C(C)(C)N(NC(=O)c1cccc(OC)c1CC)C(=O)c1cc(C)cc(C)c1 [RG-115025, 2-[N-(3,5-dimethyl-benzoyl)-N′-(2-ethyl-3-methoxy-benzoyl)-hydrazino]-2-methyl-propionic acid ethyl ester]
EC50 [1]: 2450 nM
27-63 assay Rel Max FI [1]: 1.523
fold induction at 3.3 µM [1]: 2290
fold induction at 33 µM [1]: 2240
EC50 [2]: 39300 nM
13B3 assay Rel Max FI [2]: 0.186
fold induction at 3.3 µM [2]: 8
fold induction at 33 µM [2]: 1700
